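Results reflect a 48-hour exposure of cells in 96-well plates to compound at five concentrations. GI50 is the concentration that inhibits growth by half. TGI: total growth inhibition.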

Holding throughout (assay): DTP human tumour cell line panel, 48 h
The subject of assay [1] is COLO 205 colon.
Assay [2] has as its system SN12C renal.
In assay [3] the test system is NCI-H23 lung.
The subject of assay [4] is LOX IMVI melanoma.
The test system of assay [5] is SW-620 colon.
In assay [6] the test system is KM12 colon.
For assay [7], the system named is SK-MEL-5 melanoma.
Assay [8] has as its system SR leukemia.
Assay [9] relates to SK-OV-3 ovarian.
Assay [10] relates to CCRF-CEM leukemia.

As to `COc1cc([N+](=O)[O-])c2ncccc2c1[N+](=O)[O-]`, the GI50 (usually the concentration giving 50% growth inhibition) is 10.1 µM in [1]; 12.5 µM in [2]; 3.91 µM in assay [3]; 2.31 µM in [4]; 1.82 µM in assay [5]; 2.98 µM in [6]. Further, the GI50 in [7] is 12.6 µM; in assay [8] it was 3.33 µM; in [9], 12.6 µM; in assay [10], 3.44 µM. The concentration for total growth inhibition (TGI) (commonly the concentration at which net growth stops) in assay [1] worked out at 22.9 µM; in [2] it was 25.3 µM; in assay [3] it was 16.1 µM; in [4], 8.29 µM; in assay [5], 3.44 µM; in assay [6] it was 10.5 µM. The concentration for total growth inhibition (TGI) in assay [7] is 25.3 µM; in assay [8], > 100 µM; in [9] it was 25.4 µM; in assay [10] it was 28.6 µM.

For `COc1cnc2cc(C(=O)O)c3ccccc3c2c1`, the total growth inhibition concentration (TGI) in assay [1], in [2], in [3], in assay [4], in assay [5] and in [6] was > 100 µM each time. Also, the total growth inhibition concentration (TGI) in assay [7], in assay [8], in assay [9] and in [10] was > 100 µM throughout.

In the case of `CN1CCN(c2nc(-c3ccncc3)nc3sc4c(c23)CCCCCC4)CC1`, the GI50 was 4.94 µM in [1]; 5.64 µM in [2]; 11.4 µM in [3]; 8.23 µM in assay [4]; 11.9 µM in [5]; 13.4 µM in assay [6]. The GI50 in assay [7] is 7.94 µM; in assay [8], 2.81 µM; in assay [9] it was 12.2 µM; in assay [10], 8.05 µM. For the same compound, the TGI in assay [1] came out at 17.2 µM; in [2] it was 22 µM; in assay [3], 24.3 µM; in [4], 20.5 µM; in [5], 25.6 µM; in assay [6], 28 µM. The TGI in assay [7] is 20.5 µM; in assay [8], 12.2 µM; in [9], 24.6 µM; in [10] it was 28.8 µM.

For `COc1cc2cc3c4c(cc(OC)c(OC)c4c2cc1OC)CCN3C(=O)CCC(=O)NCCCN(C)C`, the total growth inhibition concentration (TGI) in assay [1] was > 100 µM; in [2], > 100 µM; in [3] it was > 100 µM; in assay [4], 27.3 µM; in assay [5], > 100 µM; in assay [6] it was > 100 µM. The total growth inhibition concentration (TGI) in assay [7] was 28.2 µM; in assay [8], 62 µM; in assay [9], > 100 µM; in [10], 88.2 µM.

As to `COc1ccc2nc3ccccc3c(NCCCCN(C)CCCl)c2c1`, the TGI in [1] is 0.0789 µM; in assay [2] it was 0.128 µM; in assay [3] it was > 100 µM; in [4], 0.539 µM; in assay [5], 0.2 µM; in assay [6], 0.4 µM. For the same compound, the TGI amounted to 0.442 µM in [7], 0.0355 µM in assay [8], 0.469 µM in [9] and 0.229 µM in assay [10].

Consider `CCSC(SCC)=C1C(=O)N(c2ccccc2)N=C1C`, for which the concentration for total growth inhibition (TGI) in assay [1] is 7.08 µM; in assay [2], 30 µM; in assay [3] it was 34.9 µM; in assay [4], 26.4 µM; in [5], 20.3 µM; in [6], 35.3 µM. For the same compound, the total growth inhibition concentration (TGI) in assay [7] stood at 33.1 µM; in assay [8], 38.4 µM; in [9], 33.4 µM; in assay [10] it was 11 µM.

As for `O=C1c2ccccc2C(=O)c2nc3ccc(Cl)cc3cc21`, the total growth inhibition concentration (TGI) in assay [1], in assay [2], in assay [3], in [4], in [5] and in assay [6] was > 100 µM throughout. In addition, the TGI in assay [7], in [8], in assay [9] and in [10] was > 100 µM in each case.

In the case of `Oc1[nH]c2cc(Cl)ccc2c1/C=c1/ccc2c(c1)N=C(c1cc(F)cc(F)c1)N=2`, the GI50 in assay [1] is 2.24 µM; in assay [2] it was 3.89 µM; in [3] it was 2.47 µM; in assay [4], 2.22 µM; in assay [5] it was 1.1 µM; in assay [6], 2.2 µM. Besides, the GI50 in assay [7] was 1.68 µM; in assay [8], 2.22 µM; in assay [9], 2.38 µM; in assay [10], 0.657 µM. In addition, the TGI in assay [1] stood at 5.29 µM; in [2], 16.5 µM; in assay [3], 13 µM; in assay [4] it was 15.2 µM; in assay [5], 9.32 µM; in assay [6] it was 7.06 µM. Also, the TGI came to 7.59 µM in assay [7], 8.53 µM in [8], 7.95 µM in assay [9] and 3.47 µM in [10].

As to `O=c1cc(-c2ccccn2)[nH]c2ccc(Cl)cc12`, the total growth inhibition concentration (TGI) in assay [1], in [2], in assay [3], in [4], in assay [5] and in assay [6] was > 100 µM throughout. Also, the TGI in assay [7], in assay [8], in assay [9] and in assay [10] was > 100 µM in each case. Moreover, the GI50 in assay [7] is 26.6 µM.

In the case of `Cc1nc(N)nc2ccccc12`, the GI50 in [1] was > 100 µM. Further, the TGI in assay [1], in [2], in assay [3], in [4], in assay [5] and in assay [6] was > 100 µM each time. For the same compound, the concentration for total growth inhibition (TGI) in assay [7], in assay [8], in [9] and in assay [10] was > 100 µM in each case.

For `CC(NC(=O)c1ccccc1)(C(=O)O)C(=O)O`, the TGI in [1], in [2], in assay [3], in assay [4], in [5] and in assay [6] was > 100 µM in each case. For the same compound, the total growth inhibition concentration (TGI) in assay [7], in assay [8], in assay [9] and in assay [10] was > 100 µM throughout.

The values above are taken from PubChem BioAssay (NCI).
